Results: US8293786B2 (Alltranz Inc., priority 2007, dated 2012)

Tests used:
[1] = Plasma stability of cannabidiol prodrugs (bioconversion to parent drug); type: in vitro ADME; conditions: Table 20, di-prodrug in plasma; for % mono-prodrug at time (h): mono-prodrug formed
Experimental: An approximated 1 mg/mL stock solution of each prodrug was prepared in 100 μL of ethanol and 900 μL of acetonitrile. Ten (10) μL of stock was spiked into 1 mL of plasma and vortexed. The samples were kept sealed in an amber vial and samples were obtained to analyze for bioconversion to parent drug.

human abdominal skin = assay: In vitro human skin permeation and skin disposition, flow-through diffusion cells (Example 1); type: in vitro ADME
Experimental: Flow through diffusion cells were used for the permeation studies. HEPES-buffered Hanks' balanced salts containing 40% (polyethylene glycol) PEG 400 with gentamicin was used for the receiver compartment. Donor solution was comprised of either 100% propylene glycol (PG) solution or a rubbed in gel formulation. […] Drug accumulation in the skin after a 24 or 36 h diffusion experiment was determined as μmol/g wet tissue weight.
The skin samples used in the following experiments were obtained from abdominal reduction surgery and dermatomed to a thickness of approximately 200 μm. The skin samples used herein were frozen at −20° C. for less than six months.
1 L of receiver fluid was prepared by measuring 1 L of nanopure water into a graduated cylinder. 90% of the water was added to an Erlenmeyer flask. Hanks' salts (1 bottle) were added to the water along with 5.96 g of HEPES and 0.35 g of sodium bicarbonate. The pH of the solution was adjusted with 1 N sodium hydroxide solution to pH 7.4. The remaining water was added and the receiver fluid was filtered through a 0.2μ filter (Millipore, Billerica, Mass.). 50 mg of gentamicin was added to the filtered receiver fluid and 400 mL of the receiver fluid was removed and replaced with 400 mL of PEG 400.
Two different formulations were used for charging the donor compartment. Drugs were made up in either 100% PG or a gel formulation. For the PG solution, approximately 50-120 mg of the appropriate drug was weighed into a glass silanized culture tube. The gel formulation resulted from the mixing of absolute ethanol, nanopure water, IPM, Carbopol® 980, 0.1 N aqueous sodium hydroxide solution and the respective drug.
Dermatomed skin harvested from abdominoplasty, stored at −20° C., was used for the experiments. A PermeGear flow-through (In-Line, Riegelsville, Pa.) diffusion cell system was used for the skin permeation studies.
Diffusion cells were kept at 32° C. with a circulating water bath. Human epidermal skin was arranged in the diffusion cell with stratum corneum (upper layer of skin) facing the donor compartment. Permeation area of the skin was 0.95 cm^2. Data was collected from a human skin donor with three to four diffusion cells per treatment.
Receiver solution was HEPES-buffered Hanks' balanced salts with gentamicin containing 40% PEG 400 at a pH of 7.4 and flow rate was adjusted to 0.8 mL/h. Each cell was charged with 0.050 mL of the respective drug formulation (donor solution) or with 0.035 mL of gel formulation which was rubbed into the skin for 15 sec with a Teflon coated rod. The formulation was applied to ensure complete coverage. Diffusion cells were covered with a cap for the duration of the study.
Samples were collected into scintillation vials in 3 h increments for either 24 h or 36 h. All the samples were stored at 4° C. until extracted. An aliquot (0.5 mL) of the diffusion sample was placed into a silanized HPLC vial and 0.5 mL of acetonitrile was added to the sample, capped and vortexed.
At the end of the experiment, the skin tissue was removed from the diffusion cell, rinsed with nanopure water, and blotted dry with a paper towel. The skin was tape stripped twice using book tape (Scotch™, 3M, St. Paul, Minn.) to remove drug formulation adhering to the tissue surface. The area of skin in contact with the drug was cut out, chopped up and placed in a pre-weighed scintillation vial. Ten mL of acetonitrile was added to the vial and drug was extracted from the skin by shaking at room temperature overnight. The following day a 0.1 mL aliquot was removed and diluted with an additional 0.9 mL of acetonitrile. The diluted sample was added to the silanized HPLC vial for analysis.
At the end of the experiment, a 0.01 mL aliquot of the PG donor solution was removed and added to a scintillation vial containing 10 mL of acetonitrile. The vials were vortexed and then sonicated for 15 min. An aliquot of 1 mL was removed and transferred into a silanized HPLC vial for analysis.

[2] = Table 3, in propylene glycol, prodrug applied

Which results are given for `C=C(C)[C@@H]1CCC(C)=C[C@H]1c1c(OC(=O)CCN(C)C)cc(CCCCC)cc1OC(=O)CCN(C)C` [ALL00101, CBD bis(3-(dimethylamino)propionate)]?
% mono-prodrug at time (h) ([1]; 1 h): 22%; % mono-prodrug at time (h) ([1]; 20 h): 11%; % Di-prodrug at time (h) ([1]; 0 h): 100%; % Di-prodrug at time (h) ([1]; 1 h): 75%; % Di-prodrug at time (h) ([1]; 20 h): 1%; flux enhancement (in words) (human abdominal skin; Example 1): No flux enhancement; form in which the prodrug permeated through the human skin (human abdominal skin; Example 1): permeated through the human skin as cannabidiol; found in the skin disposition (tissue) samples (human abdominal skin; Example 1): Both cannabidiol and intact prodrug were found; intact prodrug in the diffusion samples (receiver samples) (human abdominal skin; Example 1): No intact prodrug was found; total cannabidiol in the skin compared to cannabidiol (human abdominal skin; Example 1): higher; 24 h cumulative amt (human abdominal skin; [2]): 11.0 ± 0.1 nmol; Flux (human abdominal skin; [2]): 1.0 ± 0.4 nmol/cm^2/h; Lag time (human abdominal skin; [2]): 11.7 ± 5.1 h; 24 h skin conc (human abdominal skin; Table 3, in propylene glycol, prodrug applied, found in skin as CBD): 17.4 ± 4.3 (CBD) μmol/g; 24 h skin conc (human abdominal skin; Table 3, in propylene glycol, prodrug applied, found in skin as PD (prodrug)): 29.2 ± 7.6 (PD) μmol/g
